The results in this text go back to patent publication US5968526A, “T cell epitopes of the major allergens from Dermatophagoides (house dust mite)” (Immulogic Pharamaceutical Corporation, priority 1995, dated 1999).

Type in all cases: cell-based, human
Assay [1] deals with PBMC from mite-allergic patient. The assay is described as follows: primary T cell (PBMC) proliferation, mite-allergic patient, tritiated thymidine. The following applies: medium 1071 ± 30. On the procedure: Peripheral blood mononuclear cells (PBMC) were purified by Ficoll-Hypaque centrifugation of a peripheral blood specimen from mite-allergic patient and were assayed for proliferation in response to various antigens, i.e., affinity-purified Der p I, affinity purified Der p II, various Der p I and Der p II peptides. For assay, 5×10^4 PBMC were cultured in triplicate microwells for 7 days at 37° C. in the presence of various concentrations of antigen in 200 μl RPMI-1640 containing 5% human AB serum. Each well then received 1 μCi tritiated thymidine for 16 hours. The counts incorporated were collected onto glass fiber filters and processed for liquid scintillation counting. […] The CPM +/- standard deviation are shown. The stimulation index of each response (S.I.) is the ratio of the ^3 H-thymidine CPM incorporated by the cells in response to antigen divided by the ^3 H-thymidine CPM incorporated by cells in medium only. […] Thus, these peptides contain Der p I or Der p II T cell epitopes recognized by T cells from this particular allergic patient.

Assay [2] concerns T cell lines primed in vitro to Der f I. Briefly: secondary proliferation of Der f I-primed T cell lines (Examples VI, VII, XI). The following applies: Der f I primed; 8 positive experiments; FIG. 8. On the procedure: Experiments similar to those of Example V were performed to determine. the T cell-reactive areas of the Der f I protein. For example, PBMC from house dust mite-allergic patient 783 were isolated as described in Example V and were stimulated in vitro-- with recombinant purified Der f I at 20 μg/ml. The results of the proliferation assay with Der f I peptides using x-irradiated (3500 Rads) autologous PBMC as antigen presenting cells indicate that T cells from this patient respond to the peptides DF I-8.1, DF I-9, DF I-6, DF I-10, DF I-2.1, DF I-3, DF I-11, DF I-5, DF I-1, and DF I-17 (data not shown).
The above procedure was followed in a number of patients except in individual cases, T cell lines were primed with affinity purified Der f I at 20 μg/ml or at 10 μg/ml and x-irradiated (25,000 Rads) autologous Epstein-Barr virus transformed B cells were used as antigen presenting cells. […]
Similarly, the procedure described in Example VI was followed with T cell lines from 9 patients primed in vitro to the Der f I protein then analyzed for response to selected peptides derived from the protein. The data was analyzed as described in Example VI. […]

The test system of assay [3] is T cell lines primed in vitro to Der p I. Briefly: secondary proliferation of Der p I-primed T cell lines (Examples V, VII, XI). Conditions: overlapping Der p I peptides; 33 positive experiments. How it is done: 10^7 PBMC from individual 543 were cultured in 10 ml RPMI-1640 containing 5% pooled human AB serum and supplemented with glutamine, penicillin, streptomycin and HEPES buffer in the presence of 20 μg/ml purified native Der p I/ml at 37° C. for 7 days. Viable cells were then purified by Ficoll-Hypaque centrifugation and cultured for 2 additional weeks in RPMI-1640/5% AB serum containing 5 units recombinant human IL-2/ml and 5 units recombinant human IL-4/ml. The resting T cells were then tested in a secondary proliferation assay to assess T cell responses to various house dust mite proteins and peptides. For assay, 2×10^4 resting T cells were cultured in 200 μl of RPMI-1640/5% AB serum for 3 days at 37° C. in the presence of 2×10^4 autologous Epstein-Barr virus transformed B cells (20,000 Rads) as antigen presenting cells with various concentrations of purified native Der p I or synthetic Der p I peptides. Each well then received 1 μCi tritiated thymidine for 16 hours. The counts incorporated were collected onto glass fiber filters and processed for liquid scintillation counting. Medium alone, acting as negative control, contained no allergen or peptide. The results of this experiment indicate that this particular patient responds with an S.I. of at least 2.0 to several peptides derived from the Der p I protein, including DP I-1, DP I-2, DP I-4, DP I-11, DP I-5, DP I-13, DP I-15, DP I-6.1, DP I-8, DP I-9, DP I-16, DP I-10 and DP I-17 (data not shown).
The above procedure was followed with a number of other house dust mite allergic individuals except a) in individual cases, the length of time of cultivation with IL-2 and IL-4 varied; b) in individual cases, the T cells were primed with either purified native (N) or recombinant (R) Der p I protein at either 20 μg/ml or 10 μg/ml; and c) in individual cases, x-irradiated (3500 Rads) autologous PBMC were used as antigen presenting cells in the secondary proliferation assay.
Individual results were considered positive and used if the individual responded to the Der p I protein and at least one peptide derived from Der p I at an S.I. of 2.0 or greater. The resting T cell lines primed with recombinant or native Der p I-stimulated PBMC were tested for reactivity to synthetic Der p I peptides. The maximum response for each peptide in a titration of the antigen is expressed as the T cell stimulation index (S.I.). The S.I. is the counts-per-minute (CPM) incorporated by cells in response to the peptide divided by the CPM incorporated by cells in medium only. […] However, only individual S.I. values greater than or equal to 2.0 (a response two-fold or greater over background), referred to herein as "positive" results, were used in calculating mean T cell stimulation indices for each peptide for the patient or group of patients tested. […] The T cell stimulation index is calculated by: [formula]
The bar represents the cumulative rank of the peptide response in the group of patients. To determine the cumulative rank, the 5 peptides with the highest S.I. in each individual were determined and assigned a numerical rank in descending order, with 5 representing the strongest response. The ranks for each peptide were then summed in the group of patients to determine the cumulative rank for the peptide. […] Given the percent positive and the mean T cell stimulation index, the positivity index (P.I.) for each peptide can be calculated.
The Der p I and Der f I proteins are very homologous (81% identity). Thus, experiments, similar to those of Example V, were carried out to determine the T cell responses of Der p I primed T cell lines when challenged with various Der p I peptides and substantially matching […].
The results of T cell studies using selected peptides derived from the Der p I, the Der f I, the Der p II and the Der f II proteins are shown in FIGS. 13-18a-d. […]

Assay [4] deals with T cell lines primed in vitro to Der p II. Briefly: secondary proliferation of Der p II-primed T cell lines (Examples VIII, X, XI). Conditions: for T-cell reactivity (DPII-22 series development): Der p II T-cell map and analogs; for T cell reactivity: overlapping Der p II peptides, 26 positive experiments, FIG. 9; for T cell response: patient 348, native Der p II primed, data not shown. On the procedure: Experiments similar to those of Example V were performed to determine the T cell-reactive areas of the Der p II protein. For example, PBMC from house dust mite-allergic patient 348 were isolated as described in Example V and were stimulated in vitro with 20 μg/ml purified native Der p II.
The above procedure was followed with a number of patients except in individual cases, T cell lines were primed with recombinant Der p II at 20 μg/ml or at 3 μg/ml and x-irradiated (3500 Rads) autologous PBMC were used as antigen-presenting cells. The data was analyzed as described in Example V, except the ranked sum of peptide responses was analyzed assigning a value of 3, 2 or 1 to the three highest S.I. responses.
A study similar to that described in Example VII was carried out to determine the T cell cross-reactivity of the Der p II and Der f II proteins. T cells primed with the Der f II protein were challenged with various Der f II peptides and a set of substantially matching Der p II peptides.
Another experiment following the procedure described in Example VIII analyzed the response of 29 patients primed in vitro to the Der p II protein and challenged with selected peptides derived from the Der p II sequence.

Assay [5] has as its system T cell lines primed in vitro with Der p II. The assay is described as follows: T cell proliferation with fine map and modified Group II peptides (Example XIV). Conditions: FIGS. 32a-b. On the procedure:
Long term T cell lines were established by stimulation of 2×10^6 PBL/ml in bulk cultures of complete medium (RPMI-1640, 2 mM L-glutamine, 100 U/ml penicillin/streptomycin, 5×10^-5 M 2-mercaptoethanol, and 10 mM HEPES supplemented with 5% heat inactivated human AB serum) with 30 μg/ml of purified native Der p I or Der p II for 5-6 days at 37° C. in a humidified 5% CO2 incubator to select for house dust mite protein allergen reactive T cells. This amount of priming antigen was determined to be optimal for the activation of T cells from house dust mite allergic patients. Viable cells were purified by LSM centrifugation and cultured in complete medium supplemented with 5 units recombinant human IL-2/ml and 5 units recombinant human IL-4/ml for up to three weeks until the cells no longer responded to lymphokines and were considered "rested". The ability of the T cells to proliferate to selected peptides, purified Der p I or Der p II, or positive (PHA) controls or negative controls (medium only) was then assessed. For assay, 2×10^4 rested cells were restimulated in the presence of 2×10^4 autologous Epstein-Barr virus (EBV)-transformed B cells (prepared as described below) (gamma-irradiated with 25,000 RADS) or with 5×10^4 autologous PBMs (gamma-irradiated with 3500 RADS), with 2-50 μg/ml of purified native Der p I or Der p II in a volume of 200 μl complete medium in duplicate or triplicate wells in 96-well round bottom plates for 3 days. Each well then received 1 μCi tritiated thymidine for 16-20 hours. The counts incorporated were collected onto glass fiber filter mats and processed for liquid scintillation counting. […] The titrations were used to optimize the dose of peptides in T cell assays.
The maximum response in a titration of each peptide is expressed as the stimulation index (S.I.). The S.I. is the counts per minute (CPM) incorporated by cells in response to peptide, divided by the CPM incorporated by cells in medium only. […] The positive results were used in calculating mean stimulation indices for each peptide for the individual patient tested.
The above procedure was followed with 18 patients in the studies using peptides derived from Der p I and Der f I (FIGS. 31a-b), and 21 patients in the studies with Der p II peptides (FIGS. 32a-b). Individual patient results were used in calculating the mean S.I. for each peptide if the patient responded to the Der p I or Der p II protein at an S.I. of 2.0 or greater and the patient responded to at least one peptide derived from a house dust mite allergen at an S.I. f 2.0 or greater. A summary of positive experiments from the patients tested is shown in FIGS. 32a and 32b and FIGS. 33a and 33b. The bars represent the positivity index. […] In parenthesis above each bar are the mean stimulation indices for each peptide or protein for the group of patients tested.
Autologous EBV-transformed cell lines were γ-irradiated with 25,000 Rad and used as antigen presenting cells in secondary proliferation assays and secondary bulk stimulations. These EBV-transformed cell lines were made by incubating 5×10^6 PBL with 1 ml of B-59/8 Marmoset cell line (ATCC CRL1612, American Type Culture Collection, Rockville, Md.) conditioned medium in the presence of 1 μg/ml phorbol 12-myristate 13-acetate (PMA) at 37° C. for 60 minutes in 12×75 mm polypropylene round-bottom Falcon snap cap tubes (Becton Dickinson Labware, Lincoln Park, N.J.). These cells were then diluted to 1.25×10^6 cells/ml in RPMI-1640 as described above except supplemented with 10% heat-inactivated fetal bovine serum and cultured in 200 μl aliquots in flat bottom culture plates until visible colonies were detected. They were then transferred to larger wells until the cell lines were established.

Consider “DP I-8: Der p I peptide (IKDLDAFRHYDGTRIIQRDNGYQPNY)”, for which the “CPM ± S.D.” value was 1439 ± 32 CPM in assay [1] (10 μg/ml), 1045 ± 32 CPM in assay [1] (30 μg/ml) and 2272 ± 40 CPM in assay [1] (100 μg/ml). In assay [2], the “T cell response to Der p I peptides” value is on record as “respond significantly”. For the same substance, the T cell reactivity result in assay [3] was “significant regions of T cell reactivity”.
On to “DP II-3.1: Der p II peptide, native sequence (HGSEPCIIHRGKPFQLEAVFEANQNTKTA)”, for which the “difference in mean S.I. or percentage of positive responses, original vs additional (native sequence) peptides” value in assay [4] (DP II-3 vs DP II-3.1) was “no significant difference”. Further, the “T-cell reactivity (DPII-22 series development)” value in assay [4] was “high T-cell reactivity”.
Turning to “DP II-3: Der p II peptide with a low number of conservative changes from the native sequence (HGSEPCIIHRGKPFQLEAVFEAVQNTKTA)”, the T cell reactivity result in assay [4] is “significant T cell reactivity”.
Consider “DP II-5: Der p II peptide (KIEIKASIDGLEVDVPGIDPNACHYMK)”, for which the “T-cell reactivity (DPII-22 series development)” value in assay [4] is “high T-cell reactivity”.
Consider “DP II-8: Der p II peptide (DIKYTWNVPKIAPKSENVVVTVKVMG)”, for which, in assay [4], the T cell reactivity result was “significant T cell reactivity” and the T cell response entry was “responds well”.
Take “DP II-9: Der p II peptide (VVTVKVMGDDGVLACAIATHAKIRD)”: the “CPM ± S.D.” value in assay [1] (10 μg/ml) worked out at 3970 ± 87 CPM; in assay [1] (30 μg/ml), 4464 ± 86 CPM; in assay [1] (100 μg/ml) it was 2237 ± 53 CPM. In assay [4], the T cell reactivity entry is “significant T cell reactivity”. In addition, the T cell response result in assay [4] is “responds well”.
In the case of “DP II-20.6: Der p II peptide (DQVDVKDSANHEIKKVLVPGSHGSEP)”, the “ranked sum of peptide responses” value in assay [4] (30 patients, FIG. 17b) is “highest ranked sum”.
Take “DP II-20: Der p II peptide (DQVDVKDCANHEIKKVLVPGCHGSEP)”: the “T cell response, Group II peptides” value in assay [5] is reported as “positive T cell studies”.
In the case of “DPII-8: printed among the modified forms; SEQ ID NO 171 in b126, probably DP II-20.8 (DQVDVKDCANHEIKKVLVPGCHGSEPK)”, the “T cell response, Group II peptides” value in assay [5] is “positive T cell studies”.
